Source: ChEMBL document CHEMBL4152278 (Eur J Med Chem, 2018)

Test system: Influenza A virus
Experiment: Antiviral activity against Influenza A virus (A/WSN/1933(H1N1)) infected in MDCK cells expressing neuraminidase H275Y mutant assessed as protection against virus-induced cytopathic effect after 48 hrs by CellTiter96 aqueous non-radioactive cell proliferation assay
Format: functional, organism-based

First: CCC(CC)O[C@@H]1C=C(C(=O)O)C[C@H](N/C(N)=N/C(=O)[C@@H](C)c2ccc3cc(OC)ccc3c2)[C@H]1NC(C)=O
Second: COc1ccc2cc([C@H](C)C(=O)/N=C(\N)N[C@H]3C=C(C(=O)O)O[C@@H]([C@H](O)[C@H](O)CO)[C@@H]3NC(C)=O)ccc2c1
The EC50 of the first is 21-fold higher: 19000 nM for the first, 900 nM for the second. The second is the more potent here.

First: CCCCCCCC(=O)/N=C(\N)N[C@H]1C=C(C(=O)O)O[C@@H]([C@H](O)[C@H](O)CO)[C@@H]1NC(C)=O
Second: CC(=O)N[C@H]1[C@H]([C@H](O)[C@H](O)CO)OC(C(=O)O)=C[C@@H]1NC(=N)N [ZANAMIVIR]
The EC50 of the first is 3.2-fold higher: 480 nM for the first, 150 nM for the second. The second is the more potent here.

First: CCCCCCCC(=O)/N=C(\N)N[C@H]1CC(C(=O)O)=C[C@@H](OC(CC)CC)[C@@H]1NC(C)=O
Second: CCC(CC)O[C@@H]1C=C(C(=O)O)C[C@H](NC(=N)N)[C@H]1NC(C)=O
The EC50 of the first is 3.1-fold higher: 6600 nM for the first, 2100 nM for the second. The second is the more potent here.

Molecule CCC(CC)O[C@@H]1C=C(C(=O)O)C[C@H](N)[C@H]1NC(C)=O [OSELTAMIVIR CARBOXYLATE] has an EC50 of 26000 nM.
